Reference: US20030166922A1, “Novel cephalosporin compounds and process for preparing the same” (priority 2000, published 2003)
Converted amounts (≈) assume the structure as drawn. Like-named read-outs stand apart in the source and are kept apart here.

How the values were obtained:
Assay in all cases: Minimum Inhibitory Concentration (MIC), agar dilution, standard strains
E. faecalis EFS004 = assay type: cell-based; settings: Table 2; Mueller-Hinton agar, 37° C., 20 hours
Description: (§1) Minimum Inhibitory Concentration (MIC)
(§2) The effectiveness of the compound according to the present invention was determined by obtaining Minimum Inhibitory Concentration (MIC) of the compounds prepared by the above Examples (I-1 to I-33) and vancomycin, which is the known compound having a potent activity against gram-positive strains, as the control drug against the standard strains. Specifically, Minimum Inhibitory Concentration was obtained by diluting the test material with a double dilution method, dispersing them in Mueller-Hinton agar medium, inoculating each of the test strain having 10^7 cfu (colny forming unit) in an amount of 2:1 to the medium and then incubating them at 37° C. for 20 hours.

S. epidermidis R005 = assay type: cell-based; settings: Mueller-Hinton agar, 37° C., 20 hours; for MIC: Staphylococcus epidermidis, R005, read-out: Minimum Inhibitory Concentration (MIC), S. epidermidis R005
Description: as §1, §2

[1] = system: Staphylococcus aureus giorgio; assay type: cell-based; settings: Mueller-Hinton agar, 37° C., 20 hours; for Minimum Inhibitory Concentration (MIC), S. aureus giorgio: Table 2
Description: as §1, §2

S. aureus K311 = assay type: cell-based, Staphylococcus aureus; settings: Table 2; Mueller-Hinton agar, 37° C., 20 hours
Description: as §1, §2

S. aureus 77 = assay type: cell-based, Staphylococcus aureus; settings: Mueller-Hinton agar, 37° C., 20 hours; for MIC: Staphylococcus aureus, 77, read-out: Minimum Inhibitory Concentration (MIC), S. aureus 77
Description: as §1, §2

E. faecalis L239 = assay type: cell-based; settings: Table 1, Mueller-Hinton agar, 37° C., 20 hours
Description: as §1, §2

S. aureus 241 = assay type: cell-based, Staphylococcus aureus; settings: Table 1, Mueller-Hinton agar, 37° C., 20 hours
Description: as §1, §2

SMILES | Minimum Inhibitory Concentration (MIC), E. faecalis EFS004 (E. faecalis EFS004) | Minimum Inhibitory Concentration (MIC), S. epidermidis R005 (S. epidermidis R005; Table 2) | Minimum Inhibitory Concentration (MIC), S. aureus giorgio [1] | Minimum Inhibitory Concentration (MIC), S. aureus K311 (S. aureus K311) | Minimum Inhibitory Concentration (MIC), S. aureus 77 (S. aureus 77; Table 2) | also measured
CCSc1nc(C)cc(SCSC2=C(C(=O)O)N3C(=O)[C@@H](NC(=O)CSc4cc(Cl)nc(Cl)c4)[C@H]3SC2)n1 [Example I-29, (6R,7R)-7-({2-[(2,6-dichloro-4-pyridinyl)sulfanyl]acetyl}amino)-3-[({[2-(ethylsulfanyl)-6-methyl-4-pyrimidinyl]sulfanyl)methyl]sulfanyl}-8-oxo-5-thia-1-azabicy-clo[4.2.0]oct-2-ene-2-carboxylic acid] | 0.25 :g/ml | 1 :g/ml | 0.031 :g/ml | 2 :g/ml | 0.5 :g/ml | 
Nc1cc(N)nc(SCSC2=C(C(=O)O)N3C(=O)[C@@H](NC(=O)CSc4cc(Cl)nc(Cl)c4)[C@H]3SC2)n1 [Example I-25, (6R,7R)-3-({[(4,6-diamino-2-pyrimidinyl)sulfanyl]methyl}sulfanyl)-7-({2-[(2,6-dichloro-4-pyridinyl)sulfanyl]acetyl}amino)-8-oxo-5-thia-1-azabicyclo[4.2.0]oct-2-ene-2-carboxylic acid] | 0.5 :g/ml |  | 0.016 :g/ml | 0.5 :g/ml |  | MIC (S. epidermidis R005; Table 2): 0.25 µg/mL (≈ 0.412 µM); MIC (S. aureus 77; Table 2): 0.25 µg/mL (≈ 0.412 µM)
C[n+]1c(SCSC2=C(C(=O)O)N3C(=O)[C@@H](NC(=O)CSc4cc(Cl)nc(Cl)c4)[C@H]3SC2)cc(N)nc1N [Example I-33, 2,4-diamino-6-[({[(6R,7R)-2-carboxy-7-({2-[(2,6-dichloro-4-pyridinyl)sulf-anyl]acetyl}amino)-8-oxo-5-thia-1-azabicyclo[4.2.0]oct-2-en-3-yl]sulfanyl}methyl)sulfan-yl]-1-methylp yrimidin-1-ium] | 0.5 :g/ml | 0.25 :g/ml | 0.031 :g/ml | 1 :g/ml | 0.25 :g/ml | 
Nc1nc(SCSC2=C(C(=O)O)N3C(=O)[C@@H](NC(=O)CSc4cc(Cl)nc(Cl)c4)[C@H]3SC2)nc2[nH]ncc12 [Example I-26, (6R,7R)-3-({[(4-amino-1H-pyrazolo[3 ,4-d]pyrimidin-6-yl)sulfanyl]methy-1}sulfanyl)-7-({2-[(2,6-dichloro-4-pyridinyl)sulfanyl]acetyl}amino)-8-oxo-5-thia-1-azabi-cyclo[4.2.0]oct-2-ene-2-carboxylic acid] | 0.5 :g/ml | 0.25 :g/ml | 0.016 :g/ml | 0.5 :g/ml | 0.25 :g/ml | 
Cn1c(N)n[n+]2c(SCSC3=C(C(=O)O)N4C(=O)[C@@H](NC(=O)CSc5cc(Cl)nc(Cl)c5)[C@H]4SC3)nc(N)cc12 [Example I-31, 2,7-diamino-5-[({[(6R,7R)-2-carboxy-7-({2-[(2,6-dichloro-4-pyridinyl)sulf-anyl]acetyl}amino)-8-oxo-5-thia-1-azabicyclo[4.2.0]oct-2-en-3-yl]sulfanyl}methyl)sulfan-yl]-1-methyl-1H-[1,2,4]triazolo[1,5-c]pyrimidin-4-ium] | 0.5 :g/ml | 0.25 :g/ml | 0.031 :g/ml | 0.5 :g/ml | 0.25 :g/ml | 
O=C(CSc1cc(Cl)nc(Cl)c1)N[C@@H]1C(=O)N2C(C(=O)O)=C(SCSc3ncnc4[nH]ncc34)CS[C@H]12 [Example I-27, (6R,7R)-7-({2-[(2,6-dichloro-4-pyridinyl)sulfanyl]acetyl}amino)-8-oxo-3-{[(1H-pyrazolo[3,4-d]pyrimidin-4-yl-sulfanyl)methyl]sulfanyl}-5-thia-1-azabicyclo[4.2. 0]oct-2-ene-2-carboxylic acid] | 0.5 :g/ml |  | 0.13 :g/ml | 0.5 :g/ml |  | MIC (S. epidermidis R005; Table 2): 0.25 µg/mL (≈ 0.405 µM); MIC (S. aureus 77; Table 2): 0.25 µg/mL (≈ 0.405 µM)
Nc1cc(SCSC2=C(C(=O)O)N3C(=O)[C@@H](NC(=O)CSc4cc(Cl)nc(Cl)c4)[C@H]3SC2)nc(N)n1 [Example I-24, (6R,7R)-3-({[(2,6-diamino-4-pyrimidinyl)sulfanyl]methyl}sulfanyl)-7-({2-[(2,6-dichloro-4-pyridinyl)sulfanyl]acetyl}amino)-8-oxo-5-thia-1-azabicyclo[4.2.0]oct-2-ene-2-carboxylic acid] | 0.5 :g/ml |  | 0.016 :g/ml | 0.5 :g/ml |  | MIC (S. epidermidis R005; Table 2): 0.25 µg/mL (≈ 0.412 µM); MIC (S. aureus 77; Table 2): 0.25 µg/mL (≈ 0.412 µM)
Nc1nc(SCSC2=C(C(=O)O)N3C(=O)[C@@H](NC(=O)CSc4cc(Cl)ccc4Cl)[C@H]3SC2)nc2cn[nH]c12 [Example I-13, (6R,7R)-3-({[(7-amino-1H-pyrazolo [4,3-d]pyrimidin-5-yl)sulfanyl]methy-1}sulfanyl)-7-({2-[(2,5-dichlorophenyl)sulfanyl]acetyl}amino)-8-oxo-5-thia-1-azabicyc-lo[4.2.0]oct-2-ene-2-carboxylic acid] |  |  |  |  |  | Minimum Inhibitory Concentration (MIC), E. faecalis L239 (E. faecalis L239): 0.25 :g/ml; Minimum Inhibitory Concentration (MIC), S. epidermidis R005 (S. epidermidis R005; Table 1): 0.13 :g/ml; Minimum Inhibitory Concentration (MIC), Staphylococcus aureus giorgio ([1]; Table 1): <0.008 :g/ml; Minimum Inhibitory Concentration (MIC), S. aureus 241 (S. aureus 241): 2 :g/ml; Minimum Inhibitory Concentration (MIC), S. aureus 77 (S. aureus 77; Table 1): 0.13 :g/ml
Nc1cc(N)nc(SCSC2=C(C(=O)O)N3C(=O)[C@@H](NC(=O)CSc4cc(Cl)ccc4Cl)[C@H]3SC2)n1 [Example I-16, (6R,7R)-3-({[(4,6-diamino-2-pyrimidinyl)sulfanyl]methyl}sulfanyl)-7-({2-[(2,5-dichlorophenyl)sulfanyl]acetyl}amino)-8-oxo-5-thia-1-azabicyclo[4.2.0]oct-2-ene-2-carboxylic acid] |  |  |  |  |  | MIC (E. faecalis L239; Enterococcus faecalis, L239, read-out: Minimum Inhibitory Concentration (MIC), E. faecalis L239): 0.5 µg/mL (≈ 0.826 µM); MIC (S. epidermidis R005; Table 1): 0.063 µg/mL (≈ 0.104 µM); MIC ([1]; Staphylococcus aureus, Table 1, read-out: Minimum Inhibitory Concentration (MIC), Staphylococcus aureus giorgio): < 8 ng/mL; MIC (S. aureus 241; Staphylococcus aureus, 241, read-out: Minimum Inhibitory Concentration (MIC), S. aureus 241): 2 µg/mL (≈ 3.3 µM); MIC (S. aureus 77; Table 1): 0.25 µg/mL (≈ 0.413 µM)
O=C(CSc1cc(Cl)nc(Cl)c1)N[C@@H]1C(=O)N2C(C(=O)O)=C(SCSc3nc(O)cc(NCCO)n3)CS[C@H]12 [Example I-32, (6R,7R)-7-({2-[(2,6-dichloro-4-pyridinyl)sulfanyl]acetyl}amino)-3-{[({4-hy-droxy-6-[(2-hydroxyethyl)amino]-2-pyrimidinyl}sulfanyl)methyl]sulfanyl}-8-oxo-5-thia-1-azabicyclo[4. 2.0]oct-2-ene-2-carboxylic acid] | 1 :g/ml | 1 :g/ml | 0.13 :g/ml | 1 :g/ml | 0.1 :g/ml | 
Cn1c(N)n[n+]2c(SCSC3=C(C(=O)O)N4C(=O)[C@@H](NC(=O)CSc5cc(Cl)ccc5Cl)[C@H]4SC3)nc(N)cc12 [Example I-14, (6R,7R)-2,7-diamino-5-[({[2-carboxy-7-({2-[(2,5-dichlorophenyl)sulfany-1]acetyl}amino)-8-oxo-5-thia-1-azabicyclo[4.2.0]oct-2-en-3-yl]sulfanyl}methyl)sulfanyl]-1-methyl-1H,2H, 3H-[1,2,4]triazolo[1,5-c]pyrimidin-4-ium] |  |  |  |  |  | Minimum Inhibitory Concentration (MIC), E. faecalis L239 (E. faecalis L239): 0.13 :g/ml; Minimum Inhibitory Concentration (MIC), S. epidermidis R005 (S. epidermidis R005; Table 1): 0.13 :g/ml; Minimum Inhibitory Concentration (MIC), Staphylococcus aureus giorgio ([1]; Table 1): <0.008 :g/ml; Minimum Inhibitory Concentration (MIC), S. aureus 241 (S. aureus 241): 2 :g/ml; Minimum Inhibitory Concentration (MIC), S. aureus 77 (S. aureus 77; Table 1): 0.25 :g/ml
